In patent US11512262B2, “Azaphenothiazines and azaphenoxazines as antioxidants” (University of Ottawa, priority 2017, dated 2022):

assay: hexadecane/PBD-BODIPY co-autoxidation, inhibition by antioxidant; details: hexadecane/PBD-BODIPY co-autoxidations at 70° C. in PhCl
Procedure: FIG. 1 is a graph depicting co-autoxidation of 2.8M hexadecane and 10 μM PBD-BODIPY at 70° C. in PhCl, initiated by 87 mM tBu2O2, and inhibited by 0.6 μM 1, 2, or 9.
Table 1. […] Relative to other antioxidants, autoxidation was inhibited poorly in the catalytic phase. Dye consumption prevented accurate determination of the stoichiometry.

Row | Structure (SMILES) | Inhibition rate constant kinh | Stoichiometry n | Turnover in the catalytic phase (footnote a to n)
1 | COc1ccc2c(n1)Sc1cccnc1N2 [Compound 9, 3-Methoxy-4,9-Diazaphenothiazine] | (5.6 ± 0.3) × 10^5 M^−1s^−1 | 15 ± 2 | 
2 | CCCCCCCc1nc(C)c2c(n1)Nc1ccccc1O2 [Compound 5, 2-Heptyl-4-methyl-1,3-Diazaphenoxazine] | (9.0 ± 0.3) × 10^5 M^−1s^−1 | 109 ± 4 | 
3 | c1ccc2c(c1)Nc1ccncc1O2 [Compound 3, 3-Azaphenoxazine] | (1.3 ± 0.2) × 10^5 M^−1s^−1 | 183 ± 8 | 
4 | CCN(CC)c1ncc2c(n1)Nc1ccccc1S2 [Compound 10, 2-Diethylamino-1,3-Diazaphenothiazine] | (2.4 ± 0.4) × 10^6 M^−1s^−1 | 11 ± 0.7 | 
5 | c1ccc2c(c1)Nc1ccncc1S2 [Compound 4, 3-Azaphenothiazine] | (5.9 ± 0.5) × 10^5 M^−1s^−1 | 46 ± 3 | 
6 | CCN(CC)c1ncc2c(n1)Nc1ccccc1S2 [Compound 7, 2-Diethylamino-1,3-Diazaphenothiazine] | (2.0 ± 0.1) × 10^5 M^−1s^−1 | 4 ± 0.4 | 
7 | c1ccc2c(c1)Nc1ncccc1S2 [Compound 2, 1-Azaphenothiazine] | (2.8 ± 0.1) × 10^5 M^−1s^−1 | 10 ± 2 | 
8 | CCCCCCCc1nc(C)c2c(n1)Nc1ccccc1S2 [Compound 6, 2-Heptyl-4-methyl-1,3-Diazaphenothiazine] | (3.3 ± 0.2) × 10^5 M^−1s^−1 |  | Inefficient turnover
9 | c1ccc2c(c1)Nc1nc(N3CCCC3)ncc1S2 [Compound 8, 2-(Pyrrolidn-1-yl)-1,3-Diazaphenothiazine] | (2.6 ± 0.1) × 10^5 M^−1s^−1 | 6 ± 0.1 | 
10 | c1ccc2c(c1)Nc1ncccc1O2 [Compound 1, 1-Azaphenoxazine] | (6.8 ± 0.2) × 10^5 M^−1s^−1 | 50 ± 1 | 
